In patent publication EP4563579A1, “MACROCYCLIC EGFR INHIBITOR, AND PREPARATION METHOD THEREFOR AND PHARMACEUTICAL USE THEREOF” (Abbisko Therapeutics Co., Ltd., priority 2022, dated 2024):
pIC50: −log10 of the molar value.

What was measured:
Type in all cases: cell-based
A431 WT = test: Cell proliferation assay (CellTiter-Glo), A431 WT; conditions: Homo sapiens, A-431; A431 WT cells, 72 hour incubation, CTG readout
Experimental: (§1) • DMEM Medium (Gibco, Cat#11965118) • RPMI1640 Medium (Gibco, Cat#11875119) • Fetal Bovine Serum (FBS) (GBICO, Cat#10099-141) • CellTiter-Glo® Luminescent Cell Viability Assay Kit (Promega, Cat#G7572) 96-well, Black, Clear Flat Bottom Plate (Corning®, Cat# 3603)
(§2) • SpectraMax Multimode Microplate Reader MD, 2104-0010A; • CO2 Incubator, Thermo Scientific 3100 Series; • Biosafety Cabinet, Thermo Scientific, 1300 Series A2; • Inverted Microscope, Olympus, CKX41SF; • Siemens Refrigerator, KK25E76TI.
(§3) • 1. Cell Culture and Inoculation: • (1) Harvest cells in a logarithmic growth phase and count the cells using a […]. Test cell viability using a trypan blue exclusion method to ensure that cell viability is above 90%. • (2) Adjust the cell concentration to desired final density; and add 90 µL of cell suspension to a 96-well plate. • (3) Incubate the cells overnight at 37°C, under 5% CO2 and 95% humidity in the 96-well plate. • 2. T0 Reference Data: • (1) Add 10 µL PBS to each well of the T0 plate containing cells. • (2) Thaw the CTG reagent and equilibrate the plate to room temperature for 30 minutes. • (3) Add an equal volume of CTG solution to each well. • (4) Lyse cells by shaking on an orbital shaker for 5 minutes. • (5) Leave the plate at room temperature for 20 minutes to stabilize the luminescence signal. • (6) Read the T0 […]. • 3. Compound Dilution and Addition • (1) Add a corresponding volume of DMSO to a corresponding compound powder according to the compound information sheet to prepare a 10 mM stock solution. • (2) Prepare 1000-fold and 3.16-fold diluted compound solutions. • (3) Dilute the 1000× diluted compound solution 100-fold with PBS to prepare a 10-fold compound solution, with a maximum concentration of 10 µM, nine concentrations and 3.16-fold dilution. Then add 10 µL of the drug solution concentration to individual wells of the 96-well plate seeded with cells. Test each compound concentration in triplicate wells, and the final DMSO concentration is 0.1%. • (4) Incubate the cells in the 96-well plate containing the drug compounds at 37°C, under 5% CO2, and 95% humidity for an additional 72 hour period prior to performing the CTG analysis. • 4. Fluorescence Signal Reading • (1) Thaw the CTG reagent and equilibrate the plate to room temperature for 30 minutes. • (2) Add an equal volume of CTG solution to each well. • (3) Lyse cells by shaking on an orbital shaker for 5 minutes. • (4) Leave the plate at room temperature for 20 minutes to stabilize the […]. • (5) Read fluorescence value. • 5. Data Processing
(§4) Analyze the data by using GraphPad Prism 7.0 software, and use Non-linear S-curve regression to fit the dose-response curves, to calculate the IC50 values (in nM). The specific experiment results are presented in Table 1: [formula] Table 1: Biology Test Results

[1] = system: Ba/F3 EGFR-L858R-T790M-C797S (LTC); test: Cell proliferation assay (CellTiter-Glo), Ba/F3 LTC; conditions: Mus musculus, BaF3; Ba/F3 EGFR-L858R-T790M-C797S cells, 72 hour incubation, CTG readout
Experimental: as §1, §2, §3, §4

[2] = system: Ba/F3 EGFR-DEL19-T790M-C797S (DTC); test: Cell proliferation assay (CellTiter-Glo), Ba/F3 DTC; conditions: Ba/F3 EGFR-DEL19-T790M-C797S cells, 72 hour incubation, CTG readout; read-out: IC50 BaF3 DTC
Experimental: as §1, §2, §3, §4

[3] = system: Ba/F3 EGFR-L858R-C797S (LC); test: Cell proliferation assay (CellTiter-Glo), Ba/F3 LC; conditions: Mus musculus, BaF3; Ba/F3 EGFR-L858R-C797S cells, 72 hour incubation, CTG readout
Experimental: as §1, §2, §3, §4

[4] = system: Ba/F3 EGFR-DEL19-C797S (DC); test: Cell proliferation assay (CellTiter-Glo), Ba/F3 DC; conditions: Mus musculus, BaF3; Ba/F3 EGFR-DEL19-C797S cells, 72 hour incubation, CTG readout
Experimental: as §1, §2, §3, §4

Row | Compound | pIC50 (A431 WT) | pIC50 [1] | pIC50 [2] | pIC50 [3] | pIC50 [4]
1 | Cn1ncc2c1OCC1(CCC1)Cn1nc(N3CC(CS(C)(=O)=O)C3)c3cnc(cc31)Nc1ccnc-2n1 [Example 25, 1'-methyl-3'-(3-((methylsulfonyl)methyl)azetidin-1-yl)s piro(cyclobutane-1,6'-8-oxa-3-aza-4(6,1)-pyrazolo[4,3-c]pyridina-2(2,4)-pyrimidina-1(4,5)-pyrazolacyclooctaphane)] | 6.24 | 6.97 | 7.37 | 6.91 | 7.18
2 | Cn1ncc2c1OCC1(CCCC1)Cn1nc(N3CC(CS(C)(=O)=O)C3)c3cnc(cc31)Nc1ccnc-2n1 [Example 26, 1'-methyl-3'-(3-((methylsulfonyl)methyl)azetidin-1-yl)s piro(cyclopentane-1,6'-8-oxa-3-aza-4(6,1)-pyrazolo[4,3-c]pyridina-2(2,4)-pyrimidina-1(4,5)-pyrazolacyclooctaphane)] | 6.19 | 7.55 | 7.79 | 7.47 | 7.94
3 | Cn1ncc2c1OCC1(CCCC1)Cn1nc(N3CC[C@H](CS(=O)(=O)C4CCC4)C3)c3cnc(cc31)Nc1ccnc-2n1 [Example 44, (S)-3'-(3-((cyclobutylsulfonyl)methyl)pyrrolidin-1-yl)-1 '-methylspiro(cyclopentane-1,6'-8-oxa-3-aza-4(6,1)-pyrazolo[4,3-c]pyridina-2(2,4)-pyrimidina-1(4,5)-pyrazolacyclooctaphane)] | 5.95 | 8.72 | 8.40 | 8.28 | 8.00
4 | Cn1ncc2c1OCC1(CCCC1)Cn1nc(N3CC[C@H](CS(=O)(=O)C4CCCC4)C3)c3cnc(cc31)Nc1ccnc-2n1 [Example 45, (S)-3'-(3-((cyclopentylsulfonyl)methyl)pyrrolidin-1-yl)-1'-methylspiro(cyclopentane-1,6'-8-oxa-3-aza-4(6,1)-pyrazolo[4,3-c]pyridina-2(2, 4)-pyrimidina-1(4,5)-pyrazolacyclooctaphane)] | 6.13 | 8.96 | 8.41 | 8.54 | 8.40
5 | Cn1ncc2c1OCC1(CCCC1)Cn1nc(N3CC[C@@H](NS(C)(=O)=O)C3)c3cnc(cc31)Nc1ccnc-2n1 [Example 48, (R)-N-(1-(1'-methylspiro(cyclopentane-1,6'-8-oxa-3-aza-4(6,1)-pyrazolo[4,3-c]pyridina-2(2,4)-pyrimidina-1(4,5)-pyrazolacyclooctaphane)-3'-yl)pyrrolidin-3-yl)metha nesulfonamide] | 6.45 | 8.35 | 8.70 | 8.12 | 8.60
6 | COC(=O)N[C@H]1CCN(c2nn3c4cc(ncc24)Nc2ccnc(n2)-c2cnn(C)c2OCC2(CCCC2)C3)C1 [Example 55, Methyl (S)-(1-(1'-methylspiro(cyclopentane-1,6'-8-oxa-3-aza-4(6,1)-pyrazolo[4,3-c]pyridina-2(2,4)-pyrimidina-1(4,5)-pyrazolacyclooctaphane)-3'-yl)pyrrolidin-3-yl)carbamate] | 6.48 | 7.92 | 8.07 | 7.48 | 7.92
7 | CCS(=O)(=O)N[C@H]1CCN(c2nn3c4cc(ncc24)Nc2ccnc(n2)-c2cnn(C)c2OCC2(CCCC2)C3)C1 [Example 57] | 6.60 | 8.10 | 8.51 | 7.64 | 8.28
8 | Cn1ncc2c1OCC1(CCCC1)Cn1nc(N3CC[C@@H](NS(=O)(=O)C4CC4)C3)c3cnc(cc31)Nc1ccnc-2n1 [Example 58, (R)-N-(1-(1'-methylspiro(cyclopentane-1,6'-8-oxa-3-aza-4(6,1)-pyrazolo[4,3-c]pyridina-2(2,4)-pyrimidina-1(4,5) -pyrazolacyclooctaphane)-3' -yl)pyrrolidin-3-yl)cyclopro panesulfonamide] | 6.04 | 8.68 | 8.55 | 8.16 | 8.14

Results, then the compound that gave them:

Row | pIC50 (A431 WT) | pIC50 [1] | pIC50 [2] | pIC50 [3] | pIC50 [4] | Compound
9 | 6.23 | 8.28 | 9.00 | 7.87 | 8.96 | Cn1ncc2c1OCC1(CCCC1)Cn1nc(N3CC[C@@H](CS(C)(=O)=O)C3)c3cnc(cc31)Nc1ccnc-2n1 [Example 27, (R)-1'-methyl-3'-(3-((methylsulfonyl)methyl)pyrrolidin-1-yl)spiro(cyclopentane-1 ,6'-8-oxa-3-aza-4(6,1)-pyrazolo[4,3-c]pyridina-2(2,4)-pyrimidina-1(4,5)-pyrazolacyclooctaphane)]
10 | 6.17 | 7.06 | 7.91 | 7.34 | 7.89 | Cn1ncc2c1OCC1(CCCC1)Cn1nc(N3CCC[C@@H](CS(C)(=O)=O)C3)c3cnc(cc31)Nc1ccnc-2n1 [Example 28, (R)-1'-methyl-3'-(3-((methylsulfonyl)methyl)piperidin-1-yl)spiro(cyclopentane-1, 6'-8-oxa-3-aza-4(6,1)-pyrazolo[4,3-c]pyridina-2(2,4)-pyrimidina-1(4,5)-pyrazolacyclooctaphane)]
11 | 6.13 | 8.24 | 8.62 | 7.93 | 8.60 | Cn1ncc2c1OCC1(CCCC1)Cn1nc(N3CC[C@@H](CS(=O)(=O)C4CC4)C3)c3cnc(cc31)Nc1ccnc-2n1 [Example 30]
12 | 6.44 | 8.37 | 8.32 | 7.97 | 8.46 | CC(C)S(=O)(=O)C[C@@H]1CCN(c2nn3c4cc(ncc24)Nc2ccnc(n2)-c2cnn(C)c2OCC2(CCCC2)C3)C1 [Example 31, (R)-3'-(3-((isopropylsulfonyl)methyl)pyrrolidin-1-yl)-1 '-methylspiro(cyclopentane-1,6'-8-oxa-3-aza-4(6,1)-pyrazolo[4,3-c]pyridina-2(2,4)-pyrimidina-1(4,5)-pyrazolacyclooctaphane)]
13 | 6.27 | 7.92 | 7.98 | 7.83 | 8.29 | Cn1ncc2c1OCC1(CCCCC1)Cn1nc(N3CC[C@@H](CS(C)(=O)=O)C3)c3cnc(cc31)Nc1ccnc-2n1 [Example 32, (R)-1'-methyl-3'-(3-((methylsulfonyl)methyl)pyrrolidin-1-yl)spiro(cyclohexane-1, 6'-8-oxa-3-aza-4(6,1)-pyrazolo[4,3-c]pyridina-2(2,4)-pyrimidina-1(4,5)-pyrazolacyclooctaphane)]
14 | 6.21 | 8.70 | 8.82 | 8.29 | 8.60 | Cn1ncc2c1OCC1(CCCCC1)Cn1nc(N3CC[C@H](CS(C)(=O)=O)C3)c3cnc(cc31)Nc1ccnc-2n1 [Example 36, (S)-1'-methyl-3'-(3-((methylsulfonyl)methyl)pyrrolidin-1-yl)spiro(cyclohexane-1,6' -8-oxa-3-aza-4(6,1)-pyrazolo[4,3-c]pyridina-2(2,4)-pyrimidina-1(4,5)-pyrazolacyclooctaphane)]
15 | 6.16 | 8.89 | 8.44 | 8.54 | 8.30 | CCCCS(=O)(=O)C[C@H]1CCN(c2nn3c4cc(ncc24)Nc2ccnc(n2)-c2cnn(C)c2OCC2(CCCC2)C3)C1 [Example 43, (S)-3'-(3-((butylsulfonyl)methyl)pyrrolidin-1-yl)-1'-me thylspiro(cyclopentane-1,6' -8-oxa-3-aza-4(6,1)-pyrazolo[4,3-c]pyridina-2(2,4)-pyrimidina-1(4,5)-pyrazolacyclooctaphane)]
